pIC50: −log10 of the molar value. “Also recorded” adds a separate entry of the source. Like-named read-outs stand apart in the source and are kept apart here. Marks after values point to notes of the source that are not given here.

In one test the target is T1, DPP-IV enzyme (Homo sapiens, UniProt P27487).
T1 construct: purchased Biovision (Milpitas, Calif., USA)
The test can be described thus: In vitro DPP-IV inhibition assay (Biovision kit, fluorescence). It counts as biochemical. The settings on record: for DPP-4 enzyme inhibition activity, in words: SAR discussion; for IC50: Table 2, head prints no unit, nM per Table 6. The procedure:
DPP-IV inhibition assay was conducted using a kit purchased from Biovision (Milpitas, Calif., USA). Briefly, DPP-IV enzyme was diluted with Tris buffer and pipetted 50 μl into glass mini-cells. […] Finally a volume of 25 μl of DPP-IV substrate was added into each tube. The fluorescence generated from hydrolysis of the substrate was read at Ex/Em=360/460 nm using Modulus® single tube multimode reader (Promega, USA). Baseline fluorescence was recorded before incubation (R1) and 20 min after incubation (R2).
The standard DPP-IV inhibitor drug sitagliptin employed as positive control. […] Sigmoidal concentration-response curves for DPP-IV % inhibition versus log concentration were plotted using Graphpad prism software, version 5.00 (GraphPad Software, Inc. La Jolla, Calif., USA).

Test [1] concerns diabetic mice. Briefly: Oral glucose tolerance test (OGTT) after single dose in diabetic mice. It counts as in vivo. Conditions: for R.P. to Vildagliptin (Single Dose): Table 6, relative potency, B.G. = blood glucose; for AUC % change from diabetic control / AUC Δ from diabetic control / AUC of blood glucose in OGTT (X, mean): single oral dose 50 mg/kg; for AUC of blood glucose in OGTT (X, mean): glucose load 2 g/kg 2 h later, AUC 0-120 min. The procedure: (§1) The Biochemical and Research Ethical Committee of King Abulaziz University (Jeddah, Saudi Arabia), in accordance with the NIH guidelines, approved all procedures, and the animals received human care during the experimental period. Experiments were carried out using adult male Swiss albino mice (SWR), of 8-9 weeks age and 30-35 g weight. Animals were purchased from the animal house of the King Fahed Medical Research center (KFMRC), Jeddah, Saudi Arabia. Mice were kept at a constant temperature of 24-25° C. and were subjected to a controlled 12 h light-dark cycle; they had free access to water and pelleted diet ad libitum.
(§2) Nicotinamide (210 mg/kg b.w.), dissolved in saline, was injected intraperitoneally 15 min before the intraperitoneal injection of Streptozotocin (STZ) (Sigma, 180 mg/kg b.w.), which was freshly prepared in citrate buffer (pH 4.5). Control animals received both vehicles. During the experimental period, animals' food intake and body weight gain were monitored once a week.
Oral glucose tolerance tests were performed in 14 h overnight fasted diabetic mice that were pretreated with a single oral dose of the tested compounds. […] The drugs were suspended in carboxymethyl cellulose (CMC)-Na (1% in distilled water) and the dosing volume was adjusted at 10 mL/kg body weight of the mouse. Then an oral glucose load was administered (2 g/kg) 2 h after drug treatment. Blood glucose levels were determined using the Accu-check Go® (Roche Diagnostics, Michigan, USA). Samples were collected just before drug administration (fasting blood glucose), then at 2 h after drug treatment (immediately before glucose loading). Then blood sample collection was continued at 20, 40, 60 and 120 min intervals after glucose loading.
Animals were distributed between three categories of groups. Each group is composed of six animals (n=6) […] as follows:
Category 1: One group of animals were 14 h overnight-fasted normoglycemic mice and vehicle-treated (1% CMC-Na) at a dose of 10 ml/kg.
Category 2: Another group of animals was overnight fasted diabetic mice received the vehicle (1% CMC-Na) at a dosing volume of 10 ml/kg and served as a negative control.
Category 4: Animals of these groups were overnight fasted diabetic mice received the tested compounds at a dose of 50 mg/kg in 1% CMC (volume of 10 ml/kg).

The test system of test [2] is diabetic mice. Briefly: Fasting blood glucose of diabetic mice treated daily for 6 consecutive days. Type of test: in vivo. Conditions: 50 mg/kg oral daily. The procedure: as §1, §2
(§3) On the same groups that received the single dose treatment, the tested compounds were given daily by oral gavage for six consecutive days. On day 6, the overnight fasted diabetic mice were pretreated with the 6th oral dose of the tested compounds. Two hours later, an oral glucose was loaded (2 g/kg/10 ml b.w.). Blood glucose levels were determined using the Accu-check Go®. Samples were collected just before drug administration (Fasting Blood glucose), then 2 h after drug treatment and before glucose administration. Samples collection was continued at 20, 40, 60 and 120 min intervals after glucose loading.
The oral glucose tolerance test (OGTT) was performed over six days on diabetic mice. The glucose level was monitored daily (Table 3). The results were analyzed for activities after a single dose (Table 4) and after the 6th dose of the drug (Table 5).

In test [3] the test system is diabetic mice. Briefly: Oral glucose tolerance test (OGTT) after multiple doses (6 days) in diabetic mice. It counts as in vivo. Conditions: for AUC % change from diabetic control / AUC Δ from diabetic control / Relative potency to vildagliptin / AUC of blood glucose in OGTT (X, mean): 50 mg/kg oral for 6 days; for Relative potency to vildagliptin: OGTT AUC; for AUC of blood glucose in OGTT (X, mean): glucose load 2 g/kg 2 h after 6th dose, AUC 0-120 min; for R.P. to Vildagliptin (6 Days): Table 6, relative potency, B.G. = blood glucose. As to the method:
as §1, §2, §3

T1 sequence (P27487 whole entry, species assumed): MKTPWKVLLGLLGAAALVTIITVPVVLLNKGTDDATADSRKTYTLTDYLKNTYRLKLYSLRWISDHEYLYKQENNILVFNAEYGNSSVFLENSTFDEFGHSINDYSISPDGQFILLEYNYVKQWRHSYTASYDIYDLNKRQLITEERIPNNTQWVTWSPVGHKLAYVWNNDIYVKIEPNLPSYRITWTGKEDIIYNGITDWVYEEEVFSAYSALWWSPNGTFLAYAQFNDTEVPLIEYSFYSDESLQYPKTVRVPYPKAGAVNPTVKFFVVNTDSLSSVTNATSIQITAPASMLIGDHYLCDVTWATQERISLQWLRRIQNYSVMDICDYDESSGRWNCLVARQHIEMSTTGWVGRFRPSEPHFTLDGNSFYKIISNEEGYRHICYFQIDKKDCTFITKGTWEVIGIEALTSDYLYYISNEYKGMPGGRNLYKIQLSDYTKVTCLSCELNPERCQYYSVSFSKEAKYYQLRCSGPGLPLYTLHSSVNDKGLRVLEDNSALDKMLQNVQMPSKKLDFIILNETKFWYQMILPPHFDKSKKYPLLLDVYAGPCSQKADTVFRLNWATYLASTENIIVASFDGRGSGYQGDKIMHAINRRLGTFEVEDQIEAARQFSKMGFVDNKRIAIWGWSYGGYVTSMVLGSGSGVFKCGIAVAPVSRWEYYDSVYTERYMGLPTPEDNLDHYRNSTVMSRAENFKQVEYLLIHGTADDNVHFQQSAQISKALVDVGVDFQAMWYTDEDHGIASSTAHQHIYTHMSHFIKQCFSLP

With `N#Cc1ccc(NC(=O)CNC23CC4CC(CC(C4)C2)C3)cc1` [Compound 118], the “DPP-4 enzyme inhibition activity, in words” value at DPP-IV enzyme is recorded as “high affinity towards the enzyme; also recorded: high DPP-4 inhibition”. In addition, on DPP-IV enzyme (read-out: IC50), the IC50 (commonly the point on the concentration scale where inhibition reaches its midpoint) turned out to be 6.25 nM. On DPP-IV enzyme (Table 6, read-out: IC50), the pIC50 is 8.20. Further, the “% Inhibition @ 100 nM” value on DPP-IV enzyme (compound at 100 nM) was 81.14%. Further, in the test with diabetic mice [1], the “R.P. to Vildagliptin (Single Dose)” value is 1.33; the “AUC % change from diabetic control” value is on record as −44.22%; the “AUC Δ from diabetic control” value was determined as 22581 mg·min/dL; the “AUC of blood glucose in OGTT (X, mean)” value was 28484* mg · dL^−1 · min. Moreover, in the test with diabetic mice [2], the “Fasting blood glucose level, Day 1” value is on record as 151.00 ± mg/dL; the “Fasting blood glucose level, Day 2” value was 124.00 ± mg/dL; the “Fasting blood glucose level, Day 3” value is on record as 117.80 ± mg/dL; the “Fasting blood glucose level, Day 4” value was 141.00 ± mg/dL. Also, in the test on diabetic mice [2], the “Fasting blood glucose level, Day 5” value is reported as 140.50 ± mg/dL and the “Fasting blood glucose level, Day 6” value was 151.30 ± mg/dL. Also, in the test with diabetic mice [3], the “AUC % change from diabetic control” value is −54.25%; the “AUC Δ from diabetic control” value worked out at 28569 mg·min/dL; the “Relative potency to vildagliptin” value is reported as 1.50; the “AUC of blood glucose in OGTT (X, mean)” value is on record as 24086* mg · dL^−1 · min. Besides, the “R.P. to Vildagliptin (6 Days)” value in the test with diabetic mice [3] came to 0.64.
On to `O=C(CNC12CC3CC(CC(C3)C1)C2)Nc1ccccn1` [Compound 119, 2-[(adamantan-1-yl)amino]-N-(pyridin-2-yl)acetamide], for which the “DPP-4 enzyme inhibition activity, in words” value at DPP-IV enzyme is listed as “best functionality in enzyme inhibition activity”. Moreover, the “DPP-4 enzyme inhibition activity, in words” value on DPP-IV enzyme (listed as GLP-119) was “high level of potency both in vitro and in vivo”. For the same molecule, the IC50 on DPP-IV enzyme (read-out: IC50) turned out to be 1.58 nM. Moreover, the pIC50 at DPP-IV enzyme (Table 6, read-out: IC50) is 8.80. In addition, testing at 0.1 µM against DPP-IV enzyme (compound at 100 nM) gave an inhibition of 58%. For the same molecule, on DPP-IV enzyme (read-out: enzymatic inhibition value / inhibitory activity (IC50)), the pIC50 is 8.80. In the test with diabetic mice [1], the “R.P. to Vildagliptin (Single Dose)” value worked out at 1.417; the “AUC % change from diabetic control” value was −46.99%; the “AUC Δ from diabetic control” value worked out at 23997 mg·min/dL; the “AUC of blood glucose in OGTT (X, mean)” value is 27068* mg · dL^−1 · min. Also, in the test with diabetic mice [2], the “Fasting blood glucose level, Day 1” value was 149.60 ± mg/dL; the “Fasting blood glucose level, Day 2” value is reported as 103.40 ± mg/dL; the “Fasting blood glucose level, Day 3” value is 104.80 ± mg/dL; the “Fasting blood glucose level, Day 4” value is given as 148.60 ± mg/dL. In addition, in the test on diabetic mice [2], the “Fasting blood glucose level, Day 5” value was 107.60 ± mg/dL and the “Fasting blood glucose level, Day 6” value is recorded as 118.60 ± mg/dL. Moreover, in the test with diabetic mice [3], the “AUC % change from diabetic control” value is given as −23.26%; the “AUC Δ from diabetic control” value was 12250 mg·min/dL; the “Relative potency to vildagliptin” value turned out to be 0.64; the “AUC of blood glucose in OGTT (X, mean)” value was 40405* mg · dL^−1 · min. In addition, the “R.P. to Vildagliptin (6 Days)” value with diabetic mice [3] came to 1.26.

The values above are taken from US10683267B1, “Antidiabetic compounds” (King Abdulaziz University, priority 2019, dated 2020).
